For 2 compounds, IC50 results are on record in ChEMBL document CHEMBL1153127, “p16(INK4a) Peptide mimetics identified via virtual screening” (Bioorg Med Chem Lett, 2010).

Assay type in all cases: protein-complex assay; call rule not given here
Assay [1] addresses CDK6/cyclin D1 (Homo sapiens, UniProt Q00534). Put plainly: (§1) Inhibition of CDK6/Cyclin D1 by FRET assay.
For assay [2], the target named is Cyclin-dependent kinase 4/cyclin D1 (Homo sapiens, UniProt P11802). In words: Inhibition of CDK4/Cyclin D1 by FRET assay.
The target in assay [3] is CDK6/cyclin D1 (Homo sapiens, UniProt P24385+Q00534). The description is as §1.
CDK6/cyclin D1 (Homo sapiens, UniProt P24385+Q00534), sequence (P24385 whole entry): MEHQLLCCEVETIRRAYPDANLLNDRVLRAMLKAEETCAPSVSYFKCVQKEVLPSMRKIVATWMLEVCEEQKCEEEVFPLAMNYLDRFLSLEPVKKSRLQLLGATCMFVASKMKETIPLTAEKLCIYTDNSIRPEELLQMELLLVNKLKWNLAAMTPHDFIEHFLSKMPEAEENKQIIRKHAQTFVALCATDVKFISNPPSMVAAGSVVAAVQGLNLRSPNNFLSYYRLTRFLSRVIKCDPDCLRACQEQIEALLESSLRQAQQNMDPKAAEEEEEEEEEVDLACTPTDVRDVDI
CDK6/cyclin D1 (Homo sapiens, UniProt P24385+Q00534), sequence (Q00534 whole entry): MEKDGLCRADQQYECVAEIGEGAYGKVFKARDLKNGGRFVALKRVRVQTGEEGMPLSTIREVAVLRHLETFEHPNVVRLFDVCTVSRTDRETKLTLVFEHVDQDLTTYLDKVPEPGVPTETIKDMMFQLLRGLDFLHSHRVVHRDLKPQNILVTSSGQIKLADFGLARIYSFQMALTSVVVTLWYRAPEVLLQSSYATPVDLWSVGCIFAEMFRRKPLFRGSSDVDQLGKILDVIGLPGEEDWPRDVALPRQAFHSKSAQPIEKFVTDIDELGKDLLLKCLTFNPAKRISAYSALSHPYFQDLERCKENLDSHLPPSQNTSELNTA

Cyclin-dependent kinase 4/cyclin D1, sequence (P11802 whole entry): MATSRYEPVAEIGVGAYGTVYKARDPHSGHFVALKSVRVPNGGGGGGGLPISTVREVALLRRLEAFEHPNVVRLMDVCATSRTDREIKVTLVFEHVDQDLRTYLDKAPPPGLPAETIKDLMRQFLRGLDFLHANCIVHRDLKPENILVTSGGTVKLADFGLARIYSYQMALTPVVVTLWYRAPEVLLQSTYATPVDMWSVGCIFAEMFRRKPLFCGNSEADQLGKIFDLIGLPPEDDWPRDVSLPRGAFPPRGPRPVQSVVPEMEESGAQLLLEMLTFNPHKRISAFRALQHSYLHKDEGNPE
Cyclin-dependent kinase 4/cyclin D1, sequence (P24385 whole entry, further chain): as the sequence (P24385 whole entry) above
CDK6/cyclin D1 (Homo sapiens, UniProt Q00534), sequence (P24385 whole entry): as above
CDK6/cyclin D1 (Homo sapiens, UniProt Q00534), sequence (Q00534 whole entry): as the sequence (Q00534 whole entry) above

In the case of `COc1cc(NCCCN(CCC(C)C)CCC(C)C)c2ncccc2c1`, the IC50 – broadly, the concentration that gives 50% inhibition – in assay [1] worked out at 325 µM; in assay [2], 162 µM.

Consider `COc1cc(NCCN(CC(C)C)CC(C)C)c2ncc(C)cc2c1`, for which the figures for the IC50 result in assay [3] and in assay [2] were “Not Active” and 128 µM, respectively.
